“Also recorded” adds a separate entry of the source.
Assays:
[1] = target: T1, SK1 (Homo sapiens, UniProt Q9NYA1); test: SK1 activity assay (inhibition; [γ-32P]ATP, recombinant SK1 in HEK 293 cell lysates); format: biochemical; set-up: made in house; host or cells: HEK 293 cells (lysate, not purified); conditions: for SK1 inhibition (in words): 3 μM Sph, 250 μM ATP (Figure 3); for isoform selectivity SK1 vs SK2 (in words): comparison of inhibition of SK1 (3 μM Sph) and SK2 (10 μM Sph)
[2] = target: T1, SK1; test: Evaluation of compounds as putative substrates of SK1 (absence of Sph); conditions: 50 μM compound, 250 μM ATP
[3] = target: T2, SK2 (Homo sapiens, UniProt Q9NRA0); test: SK2 activity assay (inhibition; [γ-32P]ATP, purified SK2); format: biochemical; conditions: 50 μM compound, 10 μM Sph, 250 μM ATP (Figure 3)
T2 sequence (Q9NRA0 1-654): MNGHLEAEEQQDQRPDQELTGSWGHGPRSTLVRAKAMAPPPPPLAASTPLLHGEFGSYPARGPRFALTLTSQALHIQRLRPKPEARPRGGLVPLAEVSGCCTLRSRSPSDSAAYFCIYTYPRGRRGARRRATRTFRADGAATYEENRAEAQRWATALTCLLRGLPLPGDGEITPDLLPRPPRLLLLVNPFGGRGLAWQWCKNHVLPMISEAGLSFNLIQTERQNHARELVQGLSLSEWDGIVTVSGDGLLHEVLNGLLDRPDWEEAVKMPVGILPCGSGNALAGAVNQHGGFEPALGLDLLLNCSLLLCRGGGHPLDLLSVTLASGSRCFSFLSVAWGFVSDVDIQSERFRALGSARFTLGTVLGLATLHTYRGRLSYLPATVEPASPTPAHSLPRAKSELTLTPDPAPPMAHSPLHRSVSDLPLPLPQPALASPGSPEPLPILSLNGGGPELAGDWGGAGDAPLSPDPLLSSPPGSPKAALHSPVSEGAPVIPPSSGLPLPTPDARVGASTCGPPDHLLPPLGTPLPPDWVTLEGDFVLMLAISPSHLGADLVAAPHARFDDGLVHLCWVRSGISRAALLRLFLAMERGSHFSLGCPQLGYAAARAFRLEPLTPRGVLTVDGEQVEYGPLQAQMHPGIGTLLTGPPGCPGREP
Protocol: To examine SAR among a panel of related compounds, we prepared a series of analogues bearing a 4-hydroxypiperidinyl group but varied the linker length between the aryl group and the piperidine. We also assessed the role of the alkyl substituent in the aryl group.
Figure 3 Effect of inhibitors on SK1 or SK2 activity. SK1 activity was measured using 3 μM Sph and 250 μM ATP. SK2 activity was assayed using 10 μM Sph and 250 μM ATP (n = 3 for each compound; results are expressed as % of control ± SD). […]. The control is 100% and equals activity against Sph alone.
Sphingosine kinase activity assays.
For SK2 activity assays, sphingosine (Sph) was complexed with fatty acid free bovine serum albumin (final concentration, 0.2 mg/mL) in reaction buffer 1 containing 20 mM Tris (pH 7.4), 1 mM EDTA, 1 mM Na3VO4, 40 mM β−glycerophosphate, 1 mM NaF, 0.007% (v/v) β6mercaptoethanol, 20% (v/v) glycerol, 10 µg/mL aprotinin, 10 µg/mL soybean trypsin inhibitor, 1 mM PMSF, 0.5 mM 46 deoxypyridoxine, and 400 mM KCl. Inhibition of SK2 activity was determined by incubating 37 ng of purified SK2 for 30 min at 30 °C in the presence of 10 µM Sph, 250 µM of [γ632P]ATP (specific activity, 4.4×10^4 cpm/nmol) in 10 mM MgCl2, and varying concentrations of the inhibitors dissolved in DMSO or control (5% v/v DMSO). […]
Compounds bearing hydroxyl groups were assessed for their ability to act as substrates for SK1 and […]

[4] = target: T2, SK2; test: Evaluation of compounds as putative substrates of SK2 (absence of Sph); conditions: 50 μM compound, 250 μM ATP, absence of Sph (Fig. S1)

T1 sequence (Q9NYA1 whole entry, canonical isoform): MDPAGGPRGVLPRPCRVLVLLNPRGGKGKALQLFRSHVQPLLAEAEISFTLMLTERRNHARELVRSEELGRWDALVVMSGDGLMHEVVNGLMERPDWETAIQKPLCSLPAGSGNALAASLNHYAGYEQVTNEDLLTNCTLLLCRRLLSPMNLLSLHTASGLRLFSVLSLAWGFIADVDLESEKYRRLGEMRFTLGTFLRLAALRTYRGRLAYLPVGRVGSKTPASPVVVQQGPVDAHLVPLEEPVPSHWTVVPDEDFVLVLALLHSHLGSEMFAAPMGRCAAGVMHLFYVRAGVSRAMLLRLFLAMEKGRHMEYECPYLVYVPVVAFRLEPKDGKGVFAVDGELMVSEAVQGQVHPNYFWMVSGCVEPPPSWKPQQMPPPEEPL

Molecule | SK1 inhibition (in words) ([1]; 50 μM compound) | further results
1-Methyl-4-(4-octylphenethyl)pyridinium Iodide [RB-052] | ineffective as SK inhibitors | 
4-(4-Octylphenethyl)pyridine [RB-051] | effectively abolished | 
CCCCCCCCc1ccc(CN2CCC(O)CC2)cc1 [RB-023, 1-(4-Octylbenzyl)piperidin-4-ol] | did not significantly alter | 
CCCCCCCCc1ccc(CCCN2CCC(O)CC2)cc1 [RB-024, 1-(3-(4-Octylphenyl)propyl)piperidin-4-ol] | did not significantly alter | 
CCCCCCCCc1ccc(CCCCN2CCC(O)CC2)cc1 [RB-025, 1-(4-(4-Octylphenyl)butyl)piperidin-4-ol] | did not significantly alter | substrate for SK1 (in words) [2]: not substrates for SK1
Cc1ccc(CCN2CCC(O)CC2)cc1 [RB-026, 1-(4-Methylphenethyl)piperidin-4-ol] | almost complete lack of inhibition | decrease of SK1 inhibition compared with RB-023 ([1]; 50 μM compound): more than 6 fold
CCCCCCCCCCCCc1ccc(CCN2CCC(O)CC2)cc1 [RB-028, 1-(4-Dodecylphenethyl)piperidin-4-ol] |  | substrate for SK1 (in words) [2]: not substrates for SK1
Cc1ccc(CCN2CCC(N=[N+]=[N-])CC2)cc1 [RB-029, 4-Azido-1-(4-methylphenethyl)piperidine] | reduced SK1 inhibition markedly | 
CCCCCCCCc1ccc(CCN2CCC(N=[N+]=[N-])CC2)cc1 [RB-030, 4-Azido-1-(4-octylphenethyl)piperidine] | reduced SK1 inhibition markedly | 
Cc1ccc(CCN2CCC(N)CC2)cc1 [RB-031, 1-(4-Methylphenethyl)piperidin-4-amine] | eliminated the inhibitory activity toward SK1 | 
CCCCCCCCc1ccc(CCN2CCC(N)CC2)cc1 [RB-032, 1-(4-Octylphenethyl)piperidin-4-amine] | diminished the potency of SK1 inhibition | isoform selectivity SK1 vs SK2 (in words) [1]: isoform selectivity of SK1 over SK2 was retained
CCCCCCCCCCCCc1ccc(CCN2CCC(N)CC2)cc1 [RB-033, 1-(4-Dodecylphenethyl)piperidin-4-amine] | eliminated the inhibitory activity toward SK1 | 
CCCCCCCCc1ccc(CCN2CCC(F)CC2)cc1 [RB-034, 4-Fluoro-1-(4-octylphenethyl)piperidine] | eliminated inhibitory activity against SK1 | 
CCCCCCCCc1ccc(CCN2CCC(=O)CC2)cc1 [RB-035, 1-(4-Octylphenethyl)piperidin-4-one] | maintained inhibition of SK1 | SK2 inhibition (in words) [3]: increased inhibition of SK2; isoform selectivity SK1 vs SK2 (in words) [1]: eliminated the isoform selectivity
CCCCCCCCc1ccc(CCN2CCC(OC)CC2)cc1 [RB-036, 4-Methoxy-1-(4-octylphenethyl)piperidine] | eliminated inhibitory activity against SK1 | 
CCCCCCCCc1ccc(CCN2CC[C@H](O)C2)cc1 [RB-037, (S)-1-(4-Octylphenethyl)pyrrolidin-3-ol] | retained inhibitory activity against SK1 | substrate for SK2 (in words) [4]: weak substrates for SK2
CCCCCCCCc1ccc(CCN2CC[C@@H](O)C2)cc1 [RB-038, (R)-1-(4-Octylphenethyl)pyrrolidin-3-ol] | retained inhibitory activity against SK1 | 
Cc1ccc(CCN2CCC[C@@H]2CO)cc1 [RB-039, (R)-(1-(4-Methylphenethyl)pyrrolidin-2-yl)methanol] | abolished | 
CCCCCCCCc1ccc(CCN2CCC[C@@H]2CO)cc1 [RB-040, (R)-(1-(4-Octylphenethyl)pyrrolidin-2-yl)methanol] |  | isoform selectivity SK1 vs SK2 (in words) [1]: equipotent inhibitors of SK1 and SK2
CCCCCCCCc1ccc(CCN2CCC[C@H]2CO)cc1 [RB-041, (S)-(1-(4-Octylphenethyl)pyrrolidin-2-yl)methanol] | much less active | substrate for SK2 (in words) [4]: weak substrates for SK2
CCCCCCCCCCCCc1ccc(CCN2CCC[C@@H]2CO)cc1 [RB-042, (R)-(1-(4-Dodecylphenethyl)pyrrolidin-2-yl)methanol] |  | isoform selectivity SK1 vs SK2 (in words) [1]: equipotent inhibitors of SK1 and SK2
CCCCCCCCCCCCc1ccc(CCN2CCC[C@H]2CO)cc1 [RB-043, (S)-(1-(4-Dodecylphenethyl)pyrrolidin-2-yl)methanol] | much less active; also recorded: abolished | substrate for SK2 (in words) [4]: weak substrates for SK2
CCCCCCCCc1ccc(C(=O)NCc2ccncc2)cc1 [RB-048, 4-Octyl-N-(pyridin-4-ylmethyl)benzamide] | effectively abolished | 
CCCCCCCCc1ccc(C[n+]2ccc(N3CCC(C)CC3)cc2)cc1.[Br-] [RB-053, 4-(4-Methylpiperidin-1-yl)-1-(4-octylbenzyl)pyridinium Bromide] | ineffective as SK inhibitors | isoform selectivity SK1 vs SK2 (in words) [1]: moderate selectivity for SK2
CCCCc1cn(-c2ccc(CC[N+]3(C)CCCCC3)cc2)nn1.CS(=O)(=O)[O-] [RB-060, 1-(4-(4-Butyl-1H-1,2,3-triazol-1-yl)phenethyl)-1-methylpiperidinium Methanesulfonate] | ineffective as SK inhibitors | 
CCCCCc1cn(-c2ccc(CC[N+]3(C)CCCCC3)cc2)nn1.CS(=O)(=O)[O-] [RB-061, 1-Methyl-1-(4-(4-pentyl-1H-1,2,3-triazol-1-yl)phenethyl)piperidinium Methanesulfonate] | ineffective as SK inhibitors | 
CCCCCCCCc1cn(-c2ccc(CC[N+]3(C)CCCCC3)cc2)nn1.CS(=O)(=O)[O-] [RB-062, 1-Methyl-1-(4-(4-octyl-1H-1,2,3-triazol-1-yl)phenethyl)piperidinium Methanesulfonate] | ineffective as SK inhibitors | 
CCCCCCCCc1cn(-c2ccc(CCN3CCC(O)CC3)cc2)nn1 [RB-065] |  | isoform selectivity SK1 vs SK2 (in words) [1]: highly selective SK1 inhibitor

Reference: paper PMC3848335, “Structure–Activity Relationships and Molecular Modeling of Sphingosine Kinase Inhibitors” (Journal of Medicinal Chemistry, 2013)
